Experimental data published in patent publication US20260007599A1, “TICAGRELOR IV FORMULATIONS FOR USE IN THE TREATMENT OF GRAM-POSITIVE BACTEREMIA” (Hyloris Developments SA, priority 2023, published 2026).

Experiments:
[1] = Flocculation test (20 μl sample material in 1 ml diluent); type: physicochemical
[2] = Impact of packaging material on stability, 40° C./75% RH; type: physicochemical; parameters: Assay: unit not given here; details: for Acetal impurity / Amine impurity / Assay / Description / Regiomer / Sum impurities >0.05 / Total (impurity) / Triol impurity / pH: HPβCD 32.5% w/w, 5 mM pH 7.5 phosphate buffer, 40° C./75% RH
Procedure: To study the potential impact of the packaging material on the stability of the ticagrelor-cyclodextrin inclusion complex, a composition with 32.5% w/w HPβCD was prepared with procedures and precaution's similar to previous trials; samples were stored in transparent clear glass vials and amber colored glass vials at a temperature of 40° C./75% RH.

[3] = Bulk hold study, ticagrelor 8 mg/ml in HPβCD 30% w/w, phosphate buffer pH 7.5; type: physicochemical
Procedure: To investigate the impact of temperature and hold time, a new composition was prepared as per below Table 19. In first step a phosphate buffer at pH 7.5 was prepared and the buffered solution was heated to 40° C.-45° C. HPβCD was added to the buffered solution under continuous mixing. […] It usually took 30 mins to 4 hours depending on batch size. Then this solution was filtered through a 0.22-micron filter and packed in suitable clear or amber colored glass vials.

[4] = tested on: Methicillin sensitive Staphylococcus aureus (MSSA); details: ex-vivo; cited from earlier work
[5] = tested on: glycopeptide intermediate Staphylococcus aureus (GISA); details: ex-vivo; cited from earlier work
[6] = tested on: vancomycin-resistant E. Faecalis (VRE); details: ex-vivo; cited from earlier work
[7] = tested on: Staphylococcus agalactiae; details: ex-vivo; cited from earlier work
[8] = 30-42% confidence interval; cited from earlier work
[9] = bulk hold at 45° C. in glass vials, T = 1 h
[10] = bulk hold at 45° C. in glass vials, T = 110 h
[11] = bulk solution in sealed vials, T = 1 M, 25° C.
[12] = bulk solution in sealed vials, T = 1 M, 40° C.

With CCCSc1nc(N[C@@H]2C[C@H]2c2ccc(F)c(F)c2)c2nnn([C@@H]3C[C@H](OCCO)[C@@H](O)[C@H]3O)c2n1 [ticagrelor, (1S,2S,3R,5S)-3-{7-[(1R,2S)-2-(3,4-difluorophenyl)cyclopropylamino]5-(propylthio)-3H-(1,2,3)triazolo (4,5-D)pyrimidin-3-yl}-5-(2 hydroxyethoxy) cyclopentane-1,2-diol] the Flocculation test ([1]; HPβCD 30% w/w, ticagrelor 5 mg/ml) was “passed”, the Flocculation test ([1]; HPβCD 35% w/w, ticagrelor 5 mg/ml) was “passed” and the Flocculation test ([1]; HPβCD 40% w/w, ticagrelor 5 mg/ml) was “passed”. The Flocculation test ([1]; HPβCD 40% w/w, ticagrelor 10 mg/ml) was “passed”, the Flocculation test ([1]; SBECD 40% w/w, ticagrelor 5 mg/ml) was “passed” and the “difference between clear and amber glass vials” value ([2]; accelerated storage stability test, after 3 months) was “no significant difference”. The “number of different impurities developed on storage” value ([2]; accelerated storage stability test, without the cyclodextrin) was 6 to 8, the Acetal impurity ([2]; amber glass vials, 1 M) was 0.05% and the Amine impurity ([2]; amber glass vials, 1 M) was 0.04%. For the same compound, the Assay ([2]; amber glass vials, 1 M) was 100.24, the Description ([2]; amber glass vials, 1 M) was “clear” and the Regiomer ([2]; amber glass vials, 1 M) was 0.01%. For the same compound, the “Sum impurities >0.05” value ([2]; amber glass vials, 1 M) was 0.05%, the “Total (impurity)” value ([2]; amber glass vials, 1 M) was 0.22% and the Triol impurity ([2]; amber glass vials, 1 M) was 0.02%. The pH ([2]; amber glass vials, 1 M) was 7.70, the Acetal impurity ([2]; amber glass vials, 2 M) was 0.04% and the Amine impurity ([2]; amber glass vials, 2 M) was 0.04%. The Assay ([2]; amber glass vials, 2 M) was 99.89, the Description ([2]; amber glass vials, 2 M) was “clear” and the Regiomer ([2]; amber glass vials, 2 M) was 0.02%. The “Sum impurities >0.05” value ([2]; amber glass vials, 2 M) was 0.00%, the “Total (impurity)” value ([2]; amber glass vials, 2 M) was 0.28% and the Triol impurity ([2]; amber glass vials, 2 M) was 0.04%. It also gave a pH ([2]; amber glass vials, 2 M) of 7.69, an Acetal impurity ([2]; amber glass vials, 3 M) of 0.05% and an Amine impurity ([2]; amber glass vials, 3 M) of 0.06%. The Assay ([2]; amber glass vials, 3 M) was 98.93, the Description ([2]; amber glass vials, 3 M) was “clear” and the Regiomer ([2]; amber glass vials, 3 M) was 0.04%. The “Sum impurities >0.05” value ([2]; amber glass vials, 3 M) was 0.16%, the “Total (impurity)” value ([2]; amber glass vials, 3 M) was 0.33% and the Triol impurity ([2]; amber glass vials, 3 M) was 0.05%. The pH ([2]; amber glass vials, 3 M) was 7.66, the Acetal impurity ([2]; amber glass vials, T0) was 0.05% and the Amine impurity ([2]; amber glass vials, T0) was 0.04%. For the same compound, the Assay ([2]; amber glass vials, T0) was 98.34, the Description ([2]; amber glass vials, T0) was “clear” and the Regiomer ([2]; amber glass vials, T0) was 0.00%. The “Sum impurities >0.05” value ([2]; amber glass vials, T0) was 0.18%, the “Total (impurity)” value ([2]; amber glass vials, T0) was 0.40% and the Triol impurity ([2]; amber glass vials, T0) was 0.04%. It also gave a pH ([2]; amber glass vials, T0) of 7.66, an Acetal impurity ([2]; clear glass vials, 1 M) of 0.04% and an Amine impurity ([2]; clear glass vials, 1 M) of 0.04%. The Assay ([2]; clear glass vials, 1 M) was 101.71, the Description ([2]; clear glass vials, 1 M) was “clear” and the Regiomer ([2]; clear glass vials, 1 M) was 0.01%. For the same compound, the “Sum impurities >0.05” value ([2]; clear glass vials, 1 M) was 0.00%, the “Total (impurity)” value ([2]; clear glass vials, 1 M) was 0.22% and the Triol impurity ([2]; clear glass vials, 1 M) was 0.03%. It also gave a pH ([2]; clear glass vials, 1 M) of 7.65, an Acetal impurity ([2]; clear glass vials, 2 M) of 0.04% and an Amine impurity ([2]; clear glass vials, 2 M) of 0.04%. The Assay ([2]; clear glass vials, 2 M) was 99.69, the Description ([2]; clear glass vials, 2 M) was “clear” and the Regiomer ([2]; clear glass vials, 2 M) was 0.02%. For the same compound, the “Sum impurities >0.05” value ([2]; clear glass vials, 2 M) was 0.05%, the “Total (impurity)” value ([2]; clear glass vials, 2 M) was 0.28% and the Triol impurity ([2]; clear glass vials, 2 M) was 0.05%. For the same compound, the pH ([2]; clear glass vials, 2 M) was 7.63, the Acetal impurity ([2]; clear glass vials, 3 M) was 0.05% and the Amine impurity ([2]; clear glass vials, 3 M) was 0.06%. The Assay ([2]; clear glass vials, 3 M) was 98.25, the Description ([2]; clear glass vials, 3 M) was “clear” and the Regiomer ([2]; clear glass vials, 3 M) was 0.04%. For the same compound, the “Sum impurities >0.05” value ([2]; clear glass vials, 3 M) was 0.16%, the “Total (impurity)” value ([2]; clear glass vials, 3 M) was 0.33% and the Triol impurity ([2]; clear glass vials, 3 M) was 0.05%. The pH ([2]; clear glass vials, 3 M) was 7.58, the Acetal impurity ([2]; clear glass vials, T0) was 0.05% and the Amine impurity ([2]; clear glass vials, T0) was 0.04%. For the same compound, the Assay ([2]; clear glass vials, T0) was 98.34, the Description ([2]; clear glass vials, T0) was “clear” and the Regiomer ([2]; clear glass vials, T0) was 0.00%. The “Sum impurities >0.05” value ([2]; clear glass vials, T0) was 0.22%, the “Total (impurity)” value ([2]; clear glass vials, T0) was 0.40% and the Triol impurity ([2]; clear glass vials, T0) was 0.05%. For the same compound, the pH ([2]; clear glass vials, T0) was 7.65, the “Acetal impurity, average content” value ([3]; bulk hold at 30° C., T0) was 0.04% and the “Amine impurity, average content” value ([3]; bulk hold at 30° C., T0) was 0.06%. The Assay ticagrelor ([3]; bulk hold at 30° C., T0) was 105.60%, the “Regiomer impurity, average content” value ([3]; bulk hold at 30° C., T0) was 0.00% and the “Sum impurities >0.05” value ([3]; bulk hold at 30° C., T0) was 0.10%. The Total impurities ([3]; bulk hold at 30° C., T0) was 0.21%, the “Triol Impurity, average content” value ([3]; bulk hold at 30° C., T0) was 0.05% and the “Acetal impurity, average content” value ([3]; bulk hold at 30° C., T4 W) was 0.04%. For the same compound, the “Amine impurity, average content” value ([3]; bulk hold at 30° C., T4 W) was 0.06%, the Assay ticagrelor ([3]; bulk hold at 30° C., T4 W) was 106.14% and the “Regiomer impurity, average content” value ([3]; bulk hold at 30° C., T4 W) was 0.00%. The “Sum impurities >0.05” value ([3]; bulk hold at 30° C., T4 W) was 0.06%, the Total impurities ([3]; bulk hold at 30° C., T4 W) was 0.21% and the “Triol Impurity, average content” value ([3]; bulk hold at 30° C., T4 W) was 0.04%. The “Acetal impurity, average content” value [3, 9] was 0.04%, the “Amine impurity, average content” value [3, 9] was 0.05% and the Assay ticagrelor [3, 9] was 107.87%. For the same compound, the “Impurity at relative retention time 1.33, average content” value [3, 9] was 0.07%, the “Sum impurities >0.05” value [3, 9] was 0.12% and the Total impurities [3, 9] was 0.20%. The “Triol Impurity, average content” value [3, 9] was 0.04%, the “Acetal impurity, average content” value [3, 10] was 0.04% and the “Amine impurity, average content” value [3, 10] was 0.07%. For the same compound, the Assay ticagrelor [3, 10] was 109.10%, the “Impurity at relative retention time 1.33, average content” value [3, 10] was 0.03% and the “Sum impurities >0.05” value [3, 10] was 0.11%. For the same compound, the Total impurities [3, 10] was 0.28%, the “Triol Impurity, average content” value [3, 10] was 0.05% and the “Acetal impurity, average content” value [3, 11] was 0.03%. For the same compound, the “Amine impurity, average content” value [3, 11] was 0.06%, the Assay ticagrelor [3, 11] was 107.22% and the “Impurity at relative retention time 1.03, average content” value [3, 11] was 0.02%. For the same compound, the “Impurity at relative retention time 1.33, average content” value [3, 11] was 0.03%, the “Regiomer impurity, average content” value [3, 11] was 0.03% and the “Sum impurities >0.05” value [3, 11] was 0.06%. For the same compound, the Total impurities [3, 11] was 0.23%, the “Triol Impurity, average content” value [3, 11] was 0.01% and the “Acetal impurity, average content” value [3, 12] was 0.00%. The “Amine impurity, average content” value [3, 12] was 0.06%, the Assay ticagrelor [3, 12] was 105.16% and the “Impurity at relative retention time 1.03, average content” value [3, 12] was 0.02%. For the same compound, the “Impurity at relative retention time 1.33, average content” value [3, 12] was 0.08%, the “Regiomer impurity, average content” value [3, 12] was 0.08% and the “Sum impurities >0.05” value [3, 12] was 0.21%. The Total impurities [3, 12] was 0.28%, the “Triol Impurity, average content” value [3, 12] was 0.00% and the minimal bactericidal concentration [4] was 20 microgram/ml. For the same compound, the minimal bactericidal concentration [5] was 20 microgram/ml, the minimal bactericidal concentration [6] was 20 microgram/ml and the minimal bactericidal concentration [7] was 40 microgram/ml. For the same compound, the Oral bioavailability [8] was 36%.
